Legend:
Format in all cases: functional
Design in all cases: scale not given: the % may be the effect or the level left
[1] = Antioxidant activity assessed as inhibition of xanthine-xanthine oxidase generated superoxide anion radical production assessed as formazone formation at 100 ug/ml after 30 mins by spectrophotometric analysis
[2] = Antioxidant activity assessed as inhibition non-enzymatic reactants generated hydroxyl radical production at 100 ug/ml after 90 mins by spectrophotometry
[3] = Antioxidant activity assessed as inhibition microsomal lipid peroxidation assessed as malondialdehyde formation at 100 ug/ml by thiobarbituric acid test; details: Microsome
[4] = Antioxidant activity assessed as inhibition microsomal lipid peroxidation assessed as malondialdehyde formation at 20 ug/ml by thiobarbituric acid test; details: Microsome
[5] = Antioxidant activity assessed as inhibition non-enzymatic reactants generated hydroxyl radical production at 20 ug/ml after 90 mins by spectrophotometry
Rattus norvegicus [6] = test: Antihyperlipidemic activity in Charles Foster rat assessed as reduction of triton WR-1339-induced plasma phospholipid level at 100 mg/kg, po after 18 hrs by spectrophotometric analysis
Rattus norvegicus [7] = test: Antihyperlipidemic activity in Charles Foster rat assessed as reduction of triton WR-1339-induced plasma total cholesterol level at 100 mg/kg, po after 18 hrs by spectrophotometric analysis
Rattus norvegicus [8] = test: Antihyperlipidemic activity in Charles Foster rat assessed as reduction of triton WR-1339-induced plasma triglyceride level at 100 mg/kg, po after 18 hrs by spectrophotometric analysis
Rattus norvegicus [9] = test: Antihyperlipidemic activity in Charles Foster rat assessed as reduction of triton WR-1339-induced plasma post heparin lipolytic activity at 100 mg/kg, po after 18 hrs by spectrophotometric analysis
[10] = Antioxidant activity assessed as inhibition of xanthine-xanthine oxidase generated superoxide anion radical production assessed as formazone formation at 20 ug/ml after 30 mins by spectrophotometric analysis
Rattus norvegicus [11] = test: Antihyperlipidemic activity in Charles Foster rat assessed as reduction of triton WR-1339-induced plasma triglyceride level at 25 mg/kg, po after 18 hrs by spectrophotometric analysis
Rattus norvegicus [12] = test: Antihyperlipidemic activity in Charles Foster rat assessed as reduction of triton WR-1339-induced plasma total cholesterol level at 25 mg/kg, po after 18 hrs by spectrophotometric analysis
Rattus norvegicus [13] = test: Antihyperlipidemic activity in Charles Foster rat assessed as reduction of triton WR-1339-induced plasma phospholipid level at 25 mg/kg, po after 18 hrs by spectrophotometric analysis

CCOC(=O)COc1cccc2c1ccc1c(C)cc(=O)oc12
Activity [1]: 28% | Activity [2]: 38% | Activity [3]: 37%

Cc1c(C)c2c(c(C)c1O)CC[C@@](C)(CCC[C@H](C)CCC[C@H](C)CCCC(C)C)O2
Activity [4]: 45%

OC[C@@H](O)[C@@H](O)[C@H](O)[C@H](O)CO
Activity [5]: 48%

Cc1ccc(C)c(OCCCC(C)(C)C(=O)O)c1 [GEMFIBROZIL]
Activity (Rattus norvegicus [6]): 35% | Activity (Rattus norvegicus [7]): 36% | Activity (Rattus norvegicus [8]): 31% | Activity (Rattus norvegicus [9]): 24%

Cc1cc(=O)oc2c1ccc1c(OC(C)c3ccccc3)cccc12 (stereo not drawn)
Activity (Rattus norvegicus [6]): 26% | Activity (Rattus norvegicus [7]): 23% | Activity (Rattus norvegicus [8]): 22%

Oc1ncnc2[nH]ncc12
Activity [10]: 86%

Cc1cc(=O)oc2c1ccc1c(OCc3ccccc3)cccc12
Activity (Rattus norvegicus [6]): 29% | Activity (Rattus norvegicus [11]): 23% | Activity [1]: 40% | Activity (Rattus norvegicus [7]): 28% | Activity (Rattus norvegicus [12]): 26% | Activity [2]: 41% | Activity (Rattus norvegicus [8]): 28% | Activity (Rattus norvegicus [13]): 24% | Activity (Rattus norvegicus [9]): 18% | Activity [3]: 38%

Source: ChEMBL document CHEMBL1157116, “Synthesis of novel benzocoumarin derivatives as lipid lowering agents” (2010)
